Measured values taken from patent US20140081012A1, “NANOPARTICLE, LIPOSOMES, POLYMERS, AGENTS AND PROTEINS MODIFIED WITH REVERSIBLE LINKERS” (THE UNIVERSITY OF NORTH CAROLINA AT CHAPEL HILL, priority 2011, published 2014).

What was measured:
[1] = Regeneration of tyramine after disulfide cleavage with DTT (GC-MS); type: physicochemical; settings: 50 mM DTT in PBS
Experimental: Two tyramine molecules were reacted with DIC in isopropanol, which completely simulates the cross-linking conditions for protein-based particles (FIG. 26). The commercially available disulfide crosslinker DSP was used as a control in this study. The dimer products were denoted as tyramine-DIC and tyramine-DSP, respectively. Both compounds were treated with 50 mM of dithiothreitol (DTT) in phosphate buffer saline (PBS) to cleave the disulfide bond. […] In addition, ^1H-NMR and high-resolution mass spectrometry confirmed the structure of tyramine recovered after DTT treatment of tyram tyramine-DIC. (SI) Therefore, all the aforementioned results support the successful design of the novel DIC crosslinker.
Tyramine (0.24 g, 1.75 mmol) was added to a solution of DIC (0.12 g, 0.35 mmol) in isopropanol (15 mL). The reaction mixture was stirred for 24 h at 40° C. The mixture was concentrated and purified by column chromatography (EtOAc) to give tyramine-DIC ([…]) as light yellow solid. Tyramine (0.24 g, 1.75 mmol) was added to a solution of DSP (0.14 g, 0.35 mmol) in DMF (4 mL). The reaction mixture was stirred for 24 h at 40° C. […] The supernatants from the solutions were collected and analyzed by gas chromatography-mass spectrometry (Alilent Technologies 5975 series MSD, 7820A GC system) and untreated tyramine was used as standard.

[2] = tested on: anti-BSA antibody (sandwich ELISA); experiment: BSA ELISA characterization; type: binding; settings: several concentrations over the sampling range
Experimental: Several concentrations were compared over the sampling range of the assays (FIG. 30). […] ELISA relies upon protein-protein interactions, thus providing insight into the preservation of the protein's binding motifs.
The solution was then dialyzed against water for 2 h to remove GSH. […] Absorbance was measured with a SpectraMax M5 plate reader (Molecular Devices) at 450 nm.

For `O=C(CCSSCCC(=O)NCCc1ccc(O)cc1)NCCc1ccc(O)cc1` [tyramine-DSP], the “regeneration of tyramine after cleavage of the disulfide bond” value [1] was “No peak of tyramine was observed”.
In the case of “albumin dissolved from the cross-linked particles: BSA released from DIC-cross-linked PRINT BSA particles in PBS with 5 mM glutathione”, the “absorbance in BSA ELISA compared with native albumin” value [2] is reported as “very similar absorbance”.
With “denatured free protein: heat denatured BSA” the “absorbance in BSA ELISA compared with native albumin” value [2] was “significantly less total absorbance”.
